Reference: US11007208B2 (priority 2015, dated 2021)
Where two headings read alike, the source gives them in different places.

Legend:
Junin virus [1] = test: microbe, parasite or virus in culture; format: cell-based; conditions: Mammarenavirus juninense, HeLa; for EC50: read-out: EC50 HCS Junin HeLa; for EC90: read-out: EC90 HCS Junin HeLa
Junin virus [2] = test: microbe, parasite or virus in culture; format: cell-based; conditions: Mammarenavirus juninense, Vero; for EC90: read-out: EC90 Junin Vero
Lassa virus = test: microbe, parasite or virus in culture; format: cell-based; conditions: Mammarenavirus lassaense, HeLa; for EC50: read-out: EC50 HCS Lassa HeLa; for EC90: read-out: EC90 HCS Lassa HeLa
[3] = tested on: MERS-CoV (Strain Jordan N3); test: microbe, parasite or virus in culture; format: cell-based; conditions: Middle East respiratory syndrome-related coronavirus, Vero, read-out: EC50 MERS-CoV Vero
in vitro [4] = conditions: human
in vitro [5] = conditions: human; remark: listed apart in the source
MERS-CoV [6] = test: microbe, parasite or virus in culture; format: cell-based; conditions: Middle East respiratory syndrome-related coronavirus, HAE, read-out: EC50 MERS (HAE)
SARS-CoV [7] = test: microbe, parasite or virus in culture; format: cell-based; conditions: Severe acute respiratory syndrome coronavirus, HAE, read-out: EC50 SARS (HAE)
SARS-CoV [8] = tested on: SARS-CoV; set-up: species or system mice; conditions: mouse, in vivo
[9] = tested on: MERS-CoV isolate HCoV-EMC/2012; set-up: species or system rhesus monkeys; conditions: rhesus monkey, in vivo
[10] = mouse, in vivo
SARS-CoV [11] = test: microbe, parasite or virus in culture; format: cell-based; conditions: Severe acute respiratory syndrome coronavirus, Calu-3 2B4, read-out: EC50 SARS (Calu-3)
MERS-CoV [12] = test: microbe, parasite or virus in culture; format: cell-based; conditions: Middle East respiratory syndrome-related coronavirus, Calu-3 2B4, read-out: EC50 MERS (Calu-3)

Row | SMILES | EC50 (Junin virus [1]) [nM] | EC90 (Junin virus [1]) [nM] | EC90 (Junin virus [2]) [nM] | EC50 (Lassa virus) [nM] | EC90 (Lassa virus) [nM] | EC50 [3] [nM] | CC50 (in vitro [4]) [nM] | CC50 (in vitro [5]) [nM] | EC50 (MERS-CoV [6]) [nM] | EC50 (SARS-CoV [7]) [nM] | further results
1 | CCC(CC)COC(=O)[C@H](C)NP(=O)(OC[C@H]1O[C@@](C#N)(c2ccc3c(N)ncnn23)[C@H](O)[C@@H]1O)Oc1ccccc1 (stereo partly drawn) [Compound 9, (2S)-2-ethylbutyl 2-((((2R,3S,4R,5R)-5-(4-aminopyrrolo[1,2-f][1,2,4]triazin-7-yl)-5-cyano-3,4-dihydroxytetrahydrofuran-2-yl)methoxy)(phenoxy)phosphorylamino)propanoate] | 490 | 1250 | > 47000 | 2000 | 4210 | 460 | – | – | – | – | EC50 (Junin virus [2]; read-out: EC50 Junin Vero): > 47000 nM
2 | N#C[C@@]1(c2ccc3c(N)ncnn23)O[C@H](CO)[C@@H](O)[C@H]1O [Compound 1, (2R,3R, 4S, 5R)-2-(4-aminopyrrolo[1,2-f][1,2,4]triazin-7-yl)-3,4-dihydroxy-5-(hydroxymethyl)tetrahydrofuran-2-carbonitrile] | – | – | > 47000 | – | – | – | > 100000 | > 100000 | 460 | 220 | –
3 | CCC(CC)COC(=O)[C@H](C)N[P@](=O)(OC[C@H]1O[C@@](C#N)(c2ccc3c(N)ncnn23)[C@H](O)[C@@H]1O)Oc1ccccc1 [Compound 32, (S)-2-ethylbutyl 2-(((S)-(((2R,3S,4R,5R)-5-(4-aminopyrrolo[2,1-f][1,2,4]triazin-7-yl)-5-cyano-3,4-dihydroxytetrahydrofuran-2-yl)methoxy)(phenoxy)phosphoryl)amino)propanoate] | 470 | 1260 | – | 1650 | 3310 | 580 | > 10000 | > 10000 | 74 | 69 | Changes in body weight post infection (SARS-CoV [8]): no evidence of weight loss; Expiration Time and End Expiratory Pause (whole body plethysmography) (SARS-CoV [8]): reduced; Infectious virus in lung tissue by plaque assay (SARS-CoV [8]): significantly decreased; Penh values (whole body plethysmography) (SARS-CoV [8]): lower compared to vehicle-treated animals; Respiration rates [9]: tended to be higher at Day 6 in vehicle-treated animals; Viral RNA in the liver, spleen, kidney and bladder tissue [9]: below the limit of detection; Viral RNA in the mediastinal lymph node [9]: detected in all animals; Viral RNA in the respiratory tract [9]: significantly reduced; Viral load in nose swabs and throat swabs [9]: no difference in viral load; Body weight and body temperature during the course of the infection ([9]; iv, 10 mg/kg): did not change appreciably; Cumulative clinical scores ([9]; iv, 10 mg/kg): notably higher in vehicle-treated animals; Disease symptoms ([9]; iv, 10 mg/kg): less pronounced; Plasma stability [10]: improved the plasma stability; EC50 (SARS-CoV [11]): 10 nM; EC50 (MERS-CoV [12]): 30 nM
